# System: cyclamen root tuber
# Assay: Germination and rooting of cut-off root tubers in solid media
# Format: in vivo
# Set-up: Germination rate / Rooting rate: unit not given here
# Details: NAA 0.05 mg/l
# Description: The cyclamen root tuber obtained was cut off from the parent body and planted in an experimental plot prepared by adding 30 to 90 g/l of sucrose, NAA and BA to the ⅓ MS medium as shown in Table 4.6 g/l of agar was added to the medium which was then sterilized in an autoclave to prepare a solid medium having a pH of 7.0. The culture test tube was left under illumination for 12 hours a day and in the dark for 12 hours. As a result, the root tubers germinated and rooted while enlarging.
# [1] = BA 0.05 mg/l (second 0.05 block, r16), sucrose 30 g/l, 60-th day
# [2] = BA 0.05 mg/l (second 0.05 block, r16), sucrose 30 g/l, 97-th day
# [3] = BA 0.05 mg/l (second 0.05 block, r16), sucrose 30 g/l, 127-th day
# [4] = BA 0.05 mg/l (second 0.05 block, r17), sucrose 50 g/l, 60-th day
# [5] = BA 0.05 mg/l (second 0.05 block, r17), sucrose 50 g/l, 97-th day
# [6] = BA 0.05 mg/l (second 0.05 block, r17), sucrose 50 g/l, 127-th day
# [7] = BA 0.05 mg/l (second 0.05 block, r18), sucrose 70 g/l, 60-th day
# [8] = BA 0.05 mg/l (second 0.05 block, r18), sucrose 70 g/l, 97-th day
# [9] = BA 0.05 mg/l (second 0.05 block, r18), sucrose 70 g/l, 127-th day
# [10] = BA 0.05 mg/l (second 0.05 block, r19), sucrose 90 g/l, 60-th day
# [11] = BA 0.05 mg/l (second 0.05 block, r19), sucrose 90 g/l, 97-th day
# [12] = BA 0.05 mg/l (second 0.05 block, r19), sucrose 90 g/l, 127-th day
# [13] = BA 0.05 mg/l, sucrose 30 g/l, 60-th day
# [14] = BA 0.05 mg/l, sucrose 30 g/l, 97-th day
# [15] = BA 0.05 mg/l, sucrose 30 g/l, 127-th day
# [16] = BA 0.05 mg/l, sucrose 50 g/l, 60-th day
# [17] = BA 0.05 mg/l, sucrose 50 g/l, 97-th day
# [18] = BA 0.05 mg/l, sucrose 50 g/l, 127-th day
# [19] = BA 0.05 mg/l, sucrose 70 g/l, 60-th day
# [20] = BA 0.05 mg/l, sucrose 70 g/l, 97-th day
# [21] = BA 0.05 mg/l, sucrose 70 g/l, 127-th day
# [22] = BA 0.05 mg/l, sucrose 90 g/l, 60-th day
# [23] = BA 0.05 mg/l, sucrose 90 g/l, 97-th day
# [24] = BA 0.05 mg/l, sucrose 90 g/l, 127-th day
# [25] = BA 0.1 mg/l, sucrose 30 g/l, 60-th day
# [26] = BA 0.1 mg/l, sucrose 30 g/l, 97-th day
# [27] = BA 0.1 mg/l, sucrose 30 g/l, 127-th day
# [28] = BA 0.1 mg/l, sucrose 50 g/l, 60-th day
# [29] = BA 0.1 mg/l, sucrose 50 g/l, 97-th day
# [30] = BA 0.1 mg/l, sucrose 50 g/l, 127-th day
# [31] = BA 0.1 mg/l, sucrose 70 g/l, 60-th day
# [32] = BA 0.1 mg/l, sucrose 70 g/l, 97-th day
# [33] = BA 0.1 mg/l, sucrose 70 g/l, 127-th day
# [34] = BA 0.1 mg/l, sucrose 90 g/l, 60-th day
# [35] = BA 0.1 mg/l, sucrose 90 g/l, 97-th day
# [36] = BA 0.1 mg/l, sucrose 90 g/l, 127-th day
# [37] = BA 1.0 mg/l, sucrose 30 g/l, 60-th day
# [38] = BA 1.0 mg/l, sucrose 30 g/l, 97-th day
# [39] = BA 1.0 mg/l, sucrose 30 g/l, 127-th day
# [40] = BA 1.0 mg/l, sucrose 50 g/l, 60-th day
# [41] = BA 1.0 mg/l, sucrose 50 g/l, 97-th day
# [42] = BA 1.0 mg/l, sucrose 50 g/l, 127-th day
# [43] = BA 1.0 mg/l, sucrose 70 g/l, 60-th day
# [44] = BA 1.0 mg/l, sucrose 70 g/l, 97-th day
# [45] = BA 1.0 mg/l, sucrose 70 g/l, 127-th day
# [46] = BA 1.0 mg/l, sucrose 90 g/l, 60-th day
# [47] = BA 1.0 mg/l, sucrose 90 g/l, 97-th day
# [48] = BA 1.0 mg/l, sucrose 90 g/l, 127-th day
smiles,measurement,setting,value
"c1ccc(CNc2ncnc3[nH]cnc23)cc1 [BA, benzylaminopurine]",Enlarging ratio,[1],3.23
same,Germination rate,[1],40
same,Rooting rate,[1],20
same,Enlarging ratio,[2],3.97
same,Germination rate,[2],40
same,Rooting rate,[2],40
same,Enlarging ratio,[3],4.23
same,Germination rate,[3],40
same,Rooting rate,[3],40
same,Enlarging ratio,[4],2.52
same,Germination rate,[4],40
same,Rooting rate,[4],0
same,Enlarging ratio,[5],2.85
same,Germination rate,[5],60
same,Rooting rate,[5],0
same,Enlarging ratio,[6],3.25
same,Germination rate,[6],60
same,Rooting rate,[6],20
same,Germination rate,[7],20
same,Rooting rate,[7],20
same,Germination rate,[8],40
same,Rooting rate,[8],20
same,Germination rate,[9],40
same,Rooting rate,[9],20
same,Enlarging ratio,[10],2.67
same,Germination rate,[10],0
same,Rooting rate,[10],20
same,Enlarging ratio,[11],4.98
same,Germination rate,[11],60
same,Rooting rate,[11],20
same,Enlarging ratio,[12],5.78
same,Germination rate,[12],60
same,Rooting rate,[12],20
same,Enlarging ratio,[13],2.17
same,Germination rate,[13],20
same,Rooting rate,[13],40
same,Enlarging ratio,[14],2.41
same,Germination rate,[14],80
same,Rooting rate,[14],40
same,Enlarging ratio,[15],2.47
same,Germination rate,[15],80
same,Rooting rate,[15],40
same,Enlarging ratio,[16],2.83
same,Germination rate,[16],20
same,Rooting rate,[16],20
same,Enlarging ratio,[17],3.43
same,Germination rate,[17],60
same,Rooting rate,[17],80
same,Enlarging ratio,[18],4.23
same,Germination rate,[18],60
same,Rooting rate,[18],80
same,Germination rate,[19],40
same,Rooting rate,[19],0
same,Germination rate,[20],40
same,Rooting rate,[20],60
same,Germination rate,[21],40
same,Rooting rate,[21],60
same,Enlarging ratio,[22],1.93
same,Germination rate,[22],40
same,Rooting rate,[22],20
same,Enlarging ratio,[23],2.11
same,Germination rate,[23],40
same,Rooting rate,[23],60
same,Enlarging ratio,[24],2.11
same,Germination rate,[24],40
same,Rooting rate,[24],60
same,Enlarging ratio,[25],2.05
same,Germination rate,[25],40
same,Rooting rate,[25],40
same,Enlarging ratio,[26],2.35
same,Germination rate,[26],60
same,Rooting rate,[26],80
same,Enlarging ratio,[27],2.35
same,Germination rate,[27],60
same,Rooting rate,[27],80
same,Enlarging ratio,[28],2.40
same,Germination rate,[28],20
same,Rooting rate,[28],40
same,Enlarging ratio,[29],2.90
same,Germination rate,[29],40
same,Rooting rate,[29],40
same,Enlarging ratio,[30],3.10
same,Germination rate,[30],60
same,Rooting rate,[30],60
same,Enlarging ratio,[31],1.40
same,Germination rate,[31],20
same,Rooting rate,[31],0
same,Enlarging ratio,[32],2.47
same,Germination rate,[32],40
same,Rooting rate,[32],0
same,Enlarging ratio,[33],2.73
same,Germination rate,[33],40
same,Rooting rate,[33],20
same,Enlarging ratio,[34],2.68
same,Germination rate,[34],0
same,Rooting rate,[34],40
same,Enlarging ratio,[35],3.28
same,Germination rate,[35],0
same,Rooting rate,[35],40
same,Enlarging ratio,[36],3.28
same,Germination rate,[36],20
same,Rooting rate,[36],40
same,Enlarging ratio,[37],2.25
same,Germination rate,[37],0
same,Rooting rate,[37],0
same,Enlarging ratio,[38],3.50
same,Germination rate,[38],40
same,Rooting rate,[38],0
same,Enlarging ratio,[39],3.95
same,Germination rate,[39],40
same,Rooting rate,[39],0
same,Enlarging ratio,[40],2.27
same,Germination rate,[40],20
same,Rooting rate,[40],0
same,Enlarging ratio,[41],3.18
same,Germination rate,[41],40
same,Rooting rate,[41],20
same,Enlarging ratio,[42],4.02
same,Germination rate,[42],40
same,Rooting rate,[42],20
same,Enlarging ratio,[43],2.25
same,Germination rate,[43],0
same,Rooting rate,[43],20
same,Enlarging ratio,[44],4.03
same,Germination rate,[44],20
same,Rooting rate,[44],40
same,Enlarging ratio,[45],4.81
same,Germination rate,[45],20
same,Rooting rate,[45],60
same,Enlarging ratio,[46],1.84
same,Germination rate,[46],40
same,Rooting rate,[46],20
same,Enlarging ratio,[47],2.11
same,Germination rate,[47],60
same,Rooting rate,[47],40
same,Enlarging ratio,[48],2.47
same,Germination rate,[48],60
same,Rooting rate,[48],40
